One series has as its system BxPC3 cells. Description: MTT cell viability assay, BxPC3. It is filed as cell-based. The conditions noted are these: Homo sapiens, BXPC-3, different time points (24, 48, 72 h). The protocol:
(§1) MTT (3-(4,5-dimethylthiazol-2-yl)-2,5-diphenyltetrazolium) assay was performed to determine the effect of AS-10 on cancer cell viability (Plano et al., 2016, J. Med. Chem. 1946-1959; Alcolea et al., 2012, Eur. J. Med. Chem. 113:134-144; Kumar et al., 2014, Eur. J. Med. Chem. 81:267-276). Briefly, 3×10^3 cells were treated with different concentrations of AS-10 in triplicate in a 96-well plate for different time points. MTT solution (20 μL of 5.0 mg/mL solution) was added to each well, three hours prior to termination time point and incubated at 37° C. Resultant formazan crystals, at termination time point, were dissolved in 50 μL DMSO. The plate was subjected to a 96-well multiscanner (Dynex Technologies, MRX Revelation; Chantilly, Va., USA) for measuring the optical densities at 570 nm and 630 nm. IC50 values were determined by performing non-linear regression using Graphpad Prism software.
To test the anti-cancer activity of AS-10 in pancreatic cancer (PC) cell lines, a MTT assay was performed. PC cell lines, Panc-1 and BxPC3, were treated with AS-10 at different doses at different time points (24, 48, and 72 h). Resulting cells were subjected to MTT cell viability assay. […] After 48 h, live cells were counted and plated in a new petri dish. […] At the end of 17 days the colonies were counted and compared to the untreated cells.
For orientation: Tetrazolium assays rely on reduction of a dye to a coloured formazan, in cell work by metabolically active cells.

For series [1], the system named is androgen receptor (AR) signaling in LNCaP cells. Description: AR / PSA and DNA damage response proteins in LNCaP cells. The series is classed as cell-based.
The test system of another series is LNCaP cells. Description: MTT cell viability test, LNCaP. It is filed as cell-based. The note with it: Homo sapiens, time and concentration dependent, read-out: EC50, growth inhibition of LNCaP cells. The protocol:
as §1

In series [2] the test system is HCT116 colon cancer xenograft. Description: Colon cancer xenograft tumor inhibition. It is filed as in vivo. The protocol:
Athymic nude mice were used to evaluate the tumor inhibitory effect of AS-10 against a xenograft model of colon cancer. Approximately, 5×10^6 cells (HCT116) were inoculated into both left and right flanks of mice. After eight days, vehicle (DMSO) or AS-10 (45.2 mg/Kg) were injected via IP injection three times per week for 18 days.

Series [3] relates to Panc-1 cells. Description: Western blot analysis of Panc-1 lysates. It is filed as cell-based. The protocol:
Whole-cell lysates were made by subjecting AS-10 treated Panc-1 cells to RIPA lysis buffer (Thermo Scientific, USA) containing protease (Roche, USA) and phosphatase inhibitor cocktails (Sigma-Aldrich, USA) (Plano et al., 2016, J. Med. Chem. 1946-1959). Lysates were spun at 15,000 rpm for 10 minutes. Resulting supernatant was stored at −80° C. until use. NuPAGE gel 4-12% (Life Technologies, Carlsbad, Calif.) was used to resolve the lysates, followed by electro-transfer to PVDF membrane. After the transfer membrane was blocked with 5% non-fat milk and probed with different antibodies. Protein of interest were detected by using enhanced Chemiluminescent reagent (Life technologies, USA). Blots were stripped using Restore Western blot stripping buffer (Thermo Scientific, USA) to save time and samples.
(A western blot detects proteins with antibodies after separation by electrophoresis.)

The next series has as its system NF-κB. Description: Electrophoretic mobility shift assay (EMSA). The note with it: Panc-1, 6 h pretreatment, TNF-α 30 min. It is filed as cell-based. The protocol:
To determine NF-κB activation, Panc-1 (1×10^6) cells were treated with different doses of AS-10 for 6 h. Thirty minutes before termination cells were stimulated with 100 ng/mL TNF-α (which is about 3.9 nM in media after addition). At the end of thirty minutes, cells were immediately stored on ice. Nuclear and cytosolic extracts were prepared as described previously (Pandey et al., 2007, J. Biol. Chem. 282: 17340-17350). Nuclear lysates were subjected to EMSA following the protocol (Pandey et al., 2007, J. Biol. Chem. 282: 17340-17350). The dried gels were exposed to X-ray films at −80° C. for exposure.

For series [4], the system named is Panc-1 cells. Put plainly: Colony formation assay. The note with it: 48 h treatment, colonies for 17 days. The series is classed as cell-based. The protocol: Crystal violet staining method was utilized for performing colony formation assay (Franken et al., 2006, Nat. protoc. 1:2315-2319). In brief, Panc-1 cells were treated with vehicle control (DMSO). 2.5 μM or 10 μM of AS-10 for 48 h. After 48 h treatment period, cells were trypsinized and live cells were counted using tryphan blue dye exclusion assay. Tissue culture plates of size 60×15 mm were seeded with 100 live cells from vehicle treated and 5000 live cells from AS-10 treated cells. Cells were allowed to form colonies for 17 days in DMEM free from DMSO or AS-10 at 37° C. in a 5% CO2 chamber. After 17 days' colonies were stained with 0.5% alcoholic crystal violet. Percentage Plating efficiency (PE) was calculated by the formula: % PE=number of colonies*100/number of cells plated. Data plotted as % relative PE.

As a reminder, the IC50 is the concentration at which inhibition is half-maximal. A higher IC50 goes with weaker potency. The EC50 is the concentration that produces a half-maximal response. `CC(=O)Oc1ccccc1C(=O)/N=C1\[Se]CCN1C(=O)c1ccccc1OC(C)=O` [AS-10, 2-((3-(2-acetoxybenzoyl)-1,3-selenazolidin-2-ylidene)carbamoyl)phenyl acetate] had an IC50 in the series on BxPC3 cells of 1000 to 5000 nM. In addition, the “prostate specific antigen (PSA) in cell culture media of LnCAP cells” value in series [1] was “inhibited”. Also, in series [1] (LNCaP), the “androgen receptor (AR) level” value was “down regulated”; the “expression of p21 and p-H2A.X” value is “increased the expression”. Further, the “protein level of AR and PSA (Western blot)” value in series [1] (LNCaP, concentration-dependent) is “decreased protein level”. In addition, the EC50 in the series on LNCaP cells lay within 1700 to 2500 nM. Moreover, the “systemic toxicity from body weights of mice” value in series [2] (45.2 mg/Kg IP three times per week for 18 days) is listed as “no apparent no systemic toxicity”. For the same compound, the “tumor growth inhibition compared to vehicle treated mice” value in series [2] (45.2 mg/kg IP three times per week for 18 days, athymic nude mice) is recorded as roughly 70%. Moreover, the “cleaved caspase 8 (active)” value with Panc-1 cells [3] is reported as “not detected”. Also, the “cleavage of caspase 9” value in the series with Panc-1 cells [3] (10 μM) is “profound cleavage”. Besides, the “acetylation of histones H3 and H4” value in the series with Panc-1 cells [3] (10 μM, increasing time points) is recorded as “able to acetylate histones”. Also, the “cell cycle arrest proteins p21 and p27” value in the series with Panc-1 cells [3] (10 μM, from 6 h for p21 and 12 h for p27) was “increase”. The PARP cleavage result with Panc-1 cells [3] (Panc-1, 48 h, low dose AS-10 2.5 μM, gemcitabine 50 μM) is given as “no effect on PARP cleavage”. Also, the IκBα degradation result in the series with Panc-1 cells [3] (cytosolic lysates, TNF-α stimulation, increasing dose) was “IκBα is not degraded”. Besides, the “active caspase 3 (cleaved caspase 3) and cleaved PARP” value with Panc-1 cells [3] (increasing concentration, 24 h) was “increase”. Besides, the “expression of Bcl-xL and Mcl-1” value with Panc-1 cells [3] (time dependent) is listed as “inhibited the expression”. Besides, the “NF-κB DNA binding (EMSA band)” value in the series with NF-κB is on record as “NF-κB band faded away in a dose dependent manner”. The “colonies formed compared to vehicle treated cells” value in the series on Panc-1 cells [4] is given as “effectively decreased the amount of colonies formed”.

Source of the values: patent publication US10287259B2, “Selenazolidine and thiazolidine compounds for treating cancer and other diseases” (The Penn State Research Foundation, priority 2016, dated 2019).
